Here are results for 6 molecules from patent publication EP4458825A1, “SALT OF AMINOPYRIMIDINE COMPOUND AND USE THEREOF” (Sunshine Lake Pharma Co., Ltd., priority 2021, dated 2023).

The Cmax is the peak of the concentration-time curve. The term Tmax denotes the time at which the peak concentration occurs. Usually AUC(0-t) stands for exposure summed from dosing to a finite time, without extrapolation to infinity.

A short description of series [1]: Stability test: high-humidity test. Conditions: for Purity: HPLC. In kind it is physicochemical. As for the experimental part: High-humidity test: The salt of the compound shown in formula (I) of the present invention was taken an appropriate amount and put into a flat weighing flask, divided into ≤ 3 mm thick thin layer. The samples were placed at 25 °C, RH 90% ± 5% and 25 °C, RH 75% ± 5% for 30 days. The samples were sampled at day 5, day 10 and day 30, and the sample color was observed. The purity of the sample was determined by HPLC.

Series [2] in a line: Pharmacokinetics test in SD rats (oral gavage, PEG400 suspension). The class given is in vivo. Conditions: 200 mg/kg. The protocol: The salt of the compound shown in formula (I) and the free base crystal form 2 of the compound shown in formula (I) of the present invention were respectively prepared into a suspension using PEG400, and the male SD rats were given 200 mg/kg test samples orally by gavage, and 3 animals in each group were given. Blood was collected at time points 0.25, 0.5, 1.0, 2.0, 5.0, 7.0 and 24 h after administration. Standard curve was plotted based on concentrations of the samples in a suitable range, the concentration of the test sample in the plasma sample was measured and quantified by AB SCIEX API4000-type LC-MS / MS at MRM mode. Pharmacokinetic parameters were calculated according to drug concentration -time curve using a noncompartmental by WinNonLin 6.3 software. Table 2 Pharmacokinetic experimental results data of salt and free base crystal form 2 of the present invention in male SD rats

Series [3] can be described thus: Long-term stability test. In kind it is physicochemical. As to conditions: for Purity: long-term, 5 °C ± 3 °C, packaged, HPLC. As for the experimental part: Long-term stability test: The samples were inspected under the conditions of single-layer PE inner packaging, aluminum foil bag outer packaging, built-in KD-20 oxygen absorber, and vacuum nitrogen filling and heat sealing packaging, low temperature 5 °C ± 3 °C long-term test conditions, and the sample color was observed. The purity of the sample was determined by HPLC.

Series [4] in a line: Pharmacokinetics test in Beagle dogs (oral capsules). The class given is in vivo. Conditions: for AUClast / Cmax / Tmax: male Beagle dogs, oral capsules, 10 mg/kg. As for the experimental part:
The salt of the compound shown in formula (I) and the free base crystal form 2 of the compound shown in formula (I) of the present invention were respectively filled with capsules for oral administration.
Male Beagle dogs of 8-12 kg were divided into 2 groups, 3 dogs in each group, and capsules containing test samples were orally administered at a dose of 10 mg/kg, and blood was collected at time points of 0.25, 0.5, 1.0, 2.0, 4.0, 6.0, 8.0 and 24 h. Standard curve was plotted based on concentrations of the samples in a suitable range, the concentration of the test sample in the plasma sample was measured and quantified by AB SCIEX API4000-type LC-MS / MS at MRM mode. Pharmacokinetic parameters were calculated according to drug concentration -time curve using a noncompartmental method by WinNonLin 6.3 software. Table 1 Pharmacokinetic experimental results data of salt and free base crystal form 2 of the present invention in Beagle dogs

Series [5] in a line: Stability test: high-temperature test. In kind it is physicochemical. Conditions: for Purity: HPLC. As for the experimental part: High-temperature test: The salt of the compound shown in formula (I) of the present invention was taken an appropriate amount and put into a flat weighing flask, divided into ≤ 3 mm thick thin layer. The samples were placed at 60 °C and 40 °C for 30 days. The samples were sampled at day 5, day 10 and day 30, and the sample color was observed. The purity of the sample was determined by HPLC.

Where [6] appears, read: High humidity RH75%, 25 °C, 5 days.
[7] abbreviates: High humidity RH75%, 25 °C, 10 days.
Setting [8] is: High humidity RH75%, 25 °C, 30 days.
Setting [9] is: High humidity RH90%, 25 °C, 5 days.
Where [10] appears, read: High humidity RH90%, 25 °C, 10 days.
Setting [11] is: High humidity RH90%, 25 °C, 30 days.
Setting [12] is: in Beagle dogs, compared with free base crystal form 2.
[13] abbreviates: High temperature (40°C), 5 days.
Where [14] appears, read: High temperature (40°C), 10 days.
The mark [15] stands for this setting: High temperature (40°C), 30 days.
[16] abbreviates: High temperature (60°C), 5 days.
Setting [17] is: High temperature (60°C), 10 days.
[18] abbreviates: High temperature (60°C), 30 days.

Where a name gives a salt, the structure may show the parent alone.

For `Cc1noc(-c2c(N)ncnc2N[C@@H](C)c2nc3cccc(C#CCO)c3c(=O)n2-c2ccccc2)n1` [crystal form A of p-toluenesulfonate salt] [(S)-2-(1-((6-amino-5-(3-methyl-1,2,4-oxadiazol-5-yl)pyrimidin-4-yl)amino)ethyl)-5-(3-hydroxyprop-1-yn-1-yl)-3-phenylquinazolin-4(3H)-one], the Outward result in series [1] (0 day), in series [1] (setting [6]), in series [1] (setting [7]), in series [1] (setting [8]), in series [1] (setting [9]) and in series [1] (setting [10]) was “Light yellow powder” in each case. Moreover, the Outward result in series [1] (setting [11]), in series [5] (0 day), in series [5] (setting [13]), in series [5] (setting [14]), in series [5] (setting [15]) and in series [5] (setting [16]) was “Light yellow powder” each time. Moreover, the Outward entry in series [5] (setting [17]) and in series [5] (setting [18]) was “Light yellow powder” each time. Also, the Purity is reported as 99.78% in series [1] (0 day); 99.69% in series [1] (setting [6]); 99.69% in series [1] (setting [7]); 99.65% in series [1] (setting [8]); 99.75% in series [1] (setting [9]); 99.78% in series [1] (setting [10]). Moreover, the Purity is 99.81% in series [1] (setting [11]); 99.27% in series [3] (0 day); 99.26% in series [3] (3 months); 99.23% in series [3] (6 months); 99.26% in series [3] (9 months); 99.27% in series [3] (12 months). The Purity came to 99.24% in series [3] (18 months); 99.24% in series [3] (24 months); 99.78% in series [5] (0 day); 99.74% in series [5] (setting [13]); 99.78% in series [5] (setting [14]); 99.69% in series [5] (setting [15]). In addition, the Purity amounted to 99.61% in series [5] (setting [16]), 99.44% in series [5] (setting [17]) and 99.1% in series [5] (setting [18]). The appearance and purity result is on record as “not significantly changed” in series [1] (conditions of high humidity), “no obvious change” in series [3] (condition of long-term stability test) and “not significantly changed” in series [5] (conditions of high temperature). For the same molecule, the Cmax in series [2] (male SD rats) is 6810 ± 1700 ng/mL; in series [4], 8400 ± 1800 ng/mL. For the same molecule, the blood concentration result in series [4] (setting [12]) is “higher”. Further, the exposure entry in series [4] (setting [12]) is “higher”. In addition, the AUClast in series [4] was determined as 84200 ± 20000 ng·h/mL.
On to `Cc1noc(-c2c(N)ncnc2N[C@@H](C)c2nc3cccc(C#CCO)c3c(=O)n2-c2ccccc2)n1` [crystal form A of bisulfate salt, (S)-2-(1-((6-amino-5-(3-methyl-1,2,4-oxadiazol-5-yl)pyrimidin-4-yl)amino)ethyl)-5-(3-hydroxyprop-1-yn-1-yl)-3-phenylquinazolin-4(3H)-one], for which, in series [2] (male SD rats), the AUClast is 40600 ± 183 ng·h/mL, the Cmax amounted to 4080 ± 375 ng/mL and the Tmax is 1.50 ± 0.866 h.
Turning to `Cc1noc(-c2c(N)ncnc2N[C@@H](C)c2nc3cccc(C#CCO)c3c(=O)n2-c2ccccc2)n1` [(S)-2-(1-((6-amino-5-(3-methyl-1,2,4-oxadiazol-5-yl)pyrimidin-4-yl)amino)ethyl)-5-(3-hydroxyprop-1-yn-1-yl)-3-phenylquinazolin-4(3H)-one], the AUC(0-t) in series [2] (male, SD, rat, plasma, po) was determined as 55200 ± 8700 ng·h/mL. Besides, the time to peak (Tmax) in series [2] (male, SD, rat, plasma, po, read-out: Tmax) came to 1.33 ± 0.58 h; in series [4] (male, Beagle, dog, plasma, po, read-out: Tmax) it was 3 ± 1.7 h.
Take `Cc1noc(-c2c(N)ncnc2N[C@@H](C)c2nc3cccc(C#CCO)c3c(=O)n2-c2ccccc2)n1` [crystal form A of Sulfate salt, (S)-2-(1-((6-amino-5-(3-methyl-1,2,4-oxadiazol-5-yl)pyrimidin-4-yl)amino)ethyl)-5-(3-hydroxyprop-1-yn-1-yl)-3-phenylquinazolin-4(3H)-one]: in series [2] (male SD rats), the AUClast was found to be 35300 ± 8920 ng·h/mL, the highest concentration (Cmax) stood at 3310 ± 993 ng/mL and the time to peak (Tmax) came out at 1.17 ± 0.764 h.
Regarding `Cc1noc(-c2c(N)ncnc2N[C@@H](C)c2nc3cccc(C#CCO)c3c(=O)n2-c2ccccc2)n1` [Free base crystal form 2, (S)-2-(1-((6-amino-5-(3-methyl-1,2,4-oxadiazol-5-yl)pyrimidin-4-yl)amino)ethyl)-5-(3-hydroxyprop-1-yn-1-yl)-3-phenylquinazolin-4(3H)-one], in series [2] (male SD rats), the AUClast turned out to be 39800 ± 7600 ng·h/mL, the maximum concentration (Cmax) was 5800 ± 850 ng/mL and the Tmax is on record as 1.67 ± 0.58 h. In series [4], the AUClast is 26700 ± 6300 ng·h/mL, the Cmax came to 2480 ± 600 ng/mL and the time of peak concentration (Tmax) is 2.36 ± 1.2 h.
In the case of `Cc1noc(-c2c(N)ncnc2N[C@@H](C)c2nc3cccc(C#CCO)c3c(=O)n2-c2ccccc2)n1` [crystal form A of phosphate salt, (S)-2-(1-((6-amino-5-(3-methyl-1,2,4-oxadiazol-5-yl)pyrimidin-4-yl)amino)ethyl)-5-(3-hydroxyprop-1-yn-1-yl)-3-phenylquinazolin-4(3H)-one], in series [2] (male SD rats), the AUClast turned out to be 37800 ± 6550 ng·h/mL, the highest concentration (Cmax) came to 3950 ± 1500 ng/mL and the time of peak concentration (Tmax) was determined as 1.50 ± 0.866 h.
